Test results published in publication PMC7845544 (Frontiers in Pharmacology, 2021).

Experiments:
Mouse pharmacokinetics = format: in vivo; details: 5 mg/kg; for Mouse PK F%: oral bioavailability
rat Leydig cells = experiment: Testosterone production from rat primary Leydig cells; format: cell-based; details: 3 h incubation
Description: Testes were obtained from 21 day old male SD rats, decapsulated into DMEM/F12 media, placed into a spinner flask containing pre-warmed 25 ml digestion media (DMEM/F12 no phenol red + 1 mg/ml Collagenase), and stirred at 37°C in 5% CO2 incubator for 10–15 min ([Hedger et al., 1990]). The digestion supernatant was passed through a 70 um cell strainer into a 50 ml tube, and the digestion was stopped with 0.1% BSA + 0.1 mg/ml trypsin soybean inhibitor) in 50 ml. The digested cells were centrifuged at 800 rpm for 5 min, the supernatant discarded and the cell pellet resuspend in 1 ml assay buffer (DMEM/F12 no phenol red +0.1% BSA) per paired testes. The cells were counted and diluted to 5 × 10^6 cells/ml, and 50 ul of this cell suspension was added to each well of a 96-well plate. Testes obtained from five 21 day old rats generally yielded 1 × 10^8 cells. […] At the end of incubation, media was collected and testosterone measured by ELISA (EIA‐1559, DRG).

human granulosa cells [1] = experiment: Estradiol production from pooled human granulosa-lutein cells (Boston IVF); format: cell-based; details: for EC50: pooled granulosa-lutein cells from two patients (Figure 4A), read-out: EC50, 17β-estradiol production; for maximal 17β-estradiol response: three patients (Figure 4B)
Description: (§1) Human granulosa cells were prepared from the spent follicular fluid of women undergoing IVF treatment at Boston IVF Center (Waltham, MA, United States) and at Family Fertility Center (Baylor College of Medicine, Houston, TX, United States) following methods previously established ([Breckwoldt et al., 1996]; [Amsterdam et al., 2003]). Institutional review board approval and informed consent from the patients were obtained before collecting the follicular fluid samples. In brief, red blood cells (RBCs) in the follicular aspirate were lyzed using RBC lysis buffer (Quality Biological Inc., Gaithersburg, MD, United States), and washed extensively with PBS and DMEM/F12 containing 5% FBS, fungizone, and the antibiotics penicillin (100 IU/ml) and streptomycin (100 μg/ml). Subsequently, cells from the aspirate were plated in T75 flasks, cultured for 7 days with fresh media being replaced every other day. At the end of the culture period, cells were released from the flask by trypsin and transferred to 96-well plates (5,000 cells/well, Greiner Bio-One). Following 48 h of culture, media in culture wells was replaced with serum free media containing 0.1% BSA and 10^−7 M androstenedione. Following 24 h of serum starvation, cells were stimulated with fresh media (0.1% BSA, 10^−7 M androstenedione) with FSH or compound for 48 h. Supernatant was collected and stored at −80C for determination of estradiol by ELISA.

[2] = microsomes
[3] = mouse, microsomes
mouse oocytes = experiment: Oocyte quality, IVF and embryo development in mice; format: in vivo
Description: Developmental competence of oocytes was determined in mice, as described previously ([Sriraman et al., 2014]). Mice were superovulated with FSH or FSH + TOP5300. […] To measure nuclear status, oocytes were assessed for perivitelline space and first polar body extrusion by phase contrast inverted microscopy. Oocyte maturity was determined by presence of a polar body reflecting oocytes in metaphase-II (MII). Oocytes without a first polar body were assessed as metaphase-I (MI). After the evaluations, oocytes were incubated for 2 h in the media before use in IVF as described ([Sriraman et al., 2014]). Briefly, oocytes were placed in fertilization media (Research Fertilization Media, Cook Medical, Bloomington, IN, United States) under paraffin oil (Calbiochem, San Diego, CA, United States) and incubated at 37°C in 6% CO2, 5% O2 and 89% N2 for 5–6 h with spermatozoa. Spermatozoa were collected from the cauda epididymis of male C57BL/6J mice and were previously incubated for 1 h in fertilization media prior to use (Research Fertilization Media; Cook Medical, Bloomington, IN) for sperm capacitation. The putative zygotes were then washed and placed in 20 μL drops of culture media (Research Cleave Media; Cook Medical, Bloomington, IN, United States) in Petri dishes, or in 60 μL of culture media in Primo Vision microwell group culture dishes (Vitrolife, Gothenberg, Sweden) and checked for fertilization/cleavage the next morning. Embryos were then cultured in the incubator for an additional 3 days to the blastocyst stage and the blastocyst development rate was recorded.

[4] = microsomes; remark: listed apart in the source
[5] = microsomes; remark: listed apart in the source
55 targets = experiment: Single concentration Cerep profile (Eurofins); format: binding; details: 10 uM
hERG = hERG (Homo sapiens, UniProt Q12809); experiment: hERG channel inhibition (Cyprotex); format: biochemical
hERG, sequence (Q12809 whole entry): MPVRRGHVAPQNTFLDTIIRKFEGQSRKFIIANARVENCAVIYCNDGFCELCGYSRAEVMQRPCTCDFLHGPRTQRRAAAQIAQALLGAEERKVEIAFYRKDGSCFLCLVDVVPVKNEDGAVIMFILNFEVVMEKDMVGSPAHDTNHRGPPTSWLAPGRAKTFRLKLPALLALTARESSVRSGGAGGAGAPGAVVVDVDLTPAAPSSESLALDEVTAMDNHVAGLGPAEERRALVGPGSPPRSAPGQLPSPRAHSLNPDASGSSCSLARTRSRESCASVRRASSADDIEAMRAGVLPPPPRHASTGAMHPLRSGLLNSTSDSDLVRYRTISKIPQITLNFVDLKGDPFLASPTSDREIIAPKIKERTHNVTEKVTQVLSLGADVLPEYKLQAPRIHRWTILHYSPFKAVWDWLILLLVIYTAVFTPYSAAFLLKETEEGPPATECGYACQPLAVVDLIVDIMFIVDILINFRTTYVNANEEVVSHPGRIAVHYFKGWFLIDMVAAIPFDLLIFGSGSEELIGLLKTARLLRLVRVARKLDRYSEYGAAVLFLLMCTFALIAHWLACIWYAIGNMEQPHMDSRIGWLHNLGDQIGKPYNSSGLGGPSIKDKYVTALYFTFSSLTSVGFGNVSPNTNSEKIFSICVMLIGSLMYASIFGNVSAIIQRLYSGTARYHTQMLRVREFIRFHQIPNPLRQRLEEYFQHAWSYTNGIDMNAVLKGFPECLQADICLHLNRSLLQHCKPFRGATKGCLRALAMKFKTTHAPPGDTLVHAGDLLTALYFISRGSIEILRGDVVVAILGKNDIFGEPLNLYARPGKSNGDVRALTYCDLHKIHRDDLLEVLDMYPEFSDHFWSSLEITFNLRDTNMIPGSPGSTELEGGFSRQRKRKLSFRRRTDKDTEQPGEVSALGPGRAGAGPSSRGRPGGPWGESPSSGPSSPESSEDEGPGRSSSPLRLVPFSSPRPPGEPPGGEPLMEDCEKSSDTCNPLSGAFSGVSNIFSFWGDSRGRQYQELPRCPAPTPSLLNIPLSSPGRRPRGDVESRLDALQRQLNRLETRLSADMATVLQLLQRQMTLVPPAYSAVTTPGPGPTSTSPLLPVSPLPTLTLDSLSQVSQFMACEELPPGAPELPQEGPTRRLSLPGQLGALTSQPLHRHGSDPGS

[6] = microsomes; remark: listed apart in the source
human granulosa cells [7] = experiment: Estradiol production by human granulosa cells from individual patients by diagnosis (NOR, ARA, PCOS); format: cell-based
Description: as §1
Clinical definitions of patient sub-populations for patients at Texas Fertility followed guidelines outlined by the Practice Committee of the American Society for Reproductive Medicine ([Practice Committee of the American Society for Reproductive Medicine, 2015]). […] Advanced reproductive age (ARA) was defined as woman of 35 years old or greater in age, based on the definition of advanced maternal age by Society for Maternal-Fetal Medicine. Polycystic Ovarian Syndrome (PCOS) is a patient with two out of the three Rotterdam criteria ([Rotterdam ESHRE/ASRM-Sponsored PCOS Consensus Workshop Group, 2004]) which includes hyperandrogenism (hirsutism or biochemical), oligomenorrhea or amenorrhea, and/or polycystic ovaries on ultrasound.

Solubility in PBS = format: physicochemical; details: PBS (pH 7.4)
[8] = rec-hFSH + TOP5300, 30, 100 mg/kg

Structure (SMILES)	Mouse PK AUC (Mouse pharmacokinetics)	Mouse PK Cmax (Mouse pharmacokinetics)	Mouse PK T1/2 (Mouse pharmacokinetics) [h]	Mouse PK F% (Mouse pharmacokinetics) [%]	testosterone production from cultured rat Leydig cells (rat Leydig cells)	EC50 (human granulosa cells [1]) [nM]	maximal 17β-estradiol response (human granulosa cells [1]; second culture) [ng/mL]	Clint, dog [2] [µl/min/mg protein]	Clint, mice [3] [µl/min/mg protein]	Clint, monkey [4] [µl/min/mg protein]	Clint, rat [5] [µl/min/mg protein]	Clint, human [6] [µl/min/mg protein]	other results
COc1cc2c(cc1-c1cnn(CCO)c1)-c1c(c(C(=O)N(C)C(C)(C)C)nn1-c1cc(Cl)cc(Cl)c1)CO2 [TOP5300]	5,533 ng*h/ml	1,133 ng/ml	2.5	22	stimulated concentration-dependent increases in testosterone production	474	200	37	19	165	11	37	% of M2 oocytes (mouse oocytes; 30 mg/kg with low dose FSH): comparable to FSH and PMSG; M1/M2 oocytes relative to FSH and PMSG group (mouse oocytes; 100 mg/kg): fewer mature oocytes (M2 oocytes) and more M1 oocytes; fertilization rates vs rec-hFSH-treated mice (mouse oocytes; [8]): no differences; hatched blastocyst rates vs rec-hFSH-treated mice (mouse oocytes; [8]): no differences; number of targets < 60% inhibition (55 targets): 52 targets; number of targets > 60% inhibition (55 targets): 3 targets; hERG assay result (hERG): inactive; hERG channel inhibition @ 10 uM (hERG; 10 uM): 16 % inhibition; fold higher concentration than rec-hFSH required to stimulate maximum estradiol production (human granulosa cells [7]): approximately 20 fold; Estradiol (pg/ml), ARA (n = 6) (human granulosa cells [7]; FSH (20 nM) or TOP5300 (400 nM), advanced reproductive age, mean ± SD): 10,648 ± 7,338 pg/ml; Estradiol (pg/ml), NOR (n = 2) (human granulosa cells [7]; FSH (20 nM) or TOP5300 (400 nM), normal ovarian reserve, mean): 4,829 pg/ml; Estradiol (pg/ml), PCOS (n = 4) (human granulosa cells [7]; FSH (20 nM) or TOP5300 (400 nM), polycystic ovarian disease, mean ± SD): 1,276 + 1,563 pg/ml
COc1cc(C(N)=O)cc(-c2cc3c(cc2OC)OCc2c(C(=O)N(C)C(C)(C)C)nn(-c4cc(Cl)cc(Cl)c4)c2-3)n1 [TOP5668]	2,494 ng*h/ml	312 ng/mL	3.57	26	very little activity	15	200	44	10	117	7	20	fold more potent than TOP5300, 17β-estradiol production (human granulosa cells [1]; pooled cells from two patients (Figure 4A)): 30 fold; fold greater maximal estradiol response than rec-hFSH (human granulosa cells [1]; pooled human granulosa cells, second culture (Figure 4B)): approximately 7 fold; potency shift to the left of TOP5300 (human granulosa cells [1]; second culture, pooled cells from three patients (Figure 4B)): ~100 fold; fold more soluble than TOP5300 (Solubility in PBS): 14 fold
